This note sets out measurements from US20210046195A1, “FORMULATION AND METHOD OF PREPARATION” (GE HEALTHCARE AS, priority 2018, published 2021).

Bridge positions count the residues as written; N and C are the ends. Cy5∗∗ = not defined here

In one experiment the test system is HCT-15 tumours. Briefly: In vivo testing in HCT-15 tumour-bearing nude mice, fluorescence imaging through laparoscope. Set-up: species or system BALB c/A nude (Bom) mice. Particulars: 1 nmol per animal i.v.; excised tumour slice against normal colon. The source says: 54 Female BALB c/A nude (Bom) mice were used in the study. The use of the animals was approved by the local ethics committee. BALB c/A nude is an inbred immunocompromised mouse strain with a high take rate for human tumours as compared to other nude mice strains. The mice were 4 weeks old upon arrival and with a body weight of approx. 20 grams at the start of the study. The animals were housed in individually ventilated cages (IVC, Scanbur BK) with HEPA filtered air. The animals had ad libitum access to “Rat and Mouse nr. 3 Breeding” diet (Scanbur BK) and tap water acidified by addition of HCl to a molar concentration of 1 mM (pH 3.0).
The colon cancer cell HCT-15 is derived from human colon carcinomas and is reported to express cMet according to Zeng et al [Clin. Exp. Metastasis, 21, 409-417. (2004)]. The cell line was proven to be tumorigenic when inoculated subcutaneously into nude mice [Flatmark et al, Eur. J. Cancer 40, 1593-1598 (2004)]. […]
Imaging was performed through a clinical laparoscope adapted to use a light source to excite the reporter and a filtering system to extract the fluorescence component. […]
Standard exposure time for colon imaging was 10 s. […] The images were visually scored using the standard scoring system employed for receiver operating characteristic analysis.

The next experiment has as its target T1, mouse cMet/Fc chimera (Mus musculus, UniProt P16056).
T1 construct: Fc (immunoglobulin Fc fusion partner); purchased R&D Systems
The experiment in a line: In vitro fluorescence polarisation assay, mouse cMet. The format is binding. Particulars: dye-labelled peptide 20 nM; mouse cMet/Fc chimera 0-150 nM (tested range). The method, then: The principle of the fluorescence polarisation method can briefly be described as follows:
Monochromatic light passes through a […] polarizing filter and excites fluorescent molecules in the sample. Only those molecules that oriented properly in the vertically polarized plane adsorb light, become excited, and subsequently emit light. The emitted light is measured in both horizontal and vertical planes. The anisotropy value (A), is the ratio between the light intensities following the equation:
A=(Intensity with horizontal polarizer−Intensity with vertical polarizer)/(Intensity with horizontal polarizer+2* Intensity with vertical polarizer).
The fluorescence anisotropy measurements were performed in 384-well microplates in a volume of 10 μL in binding buffer (PBS, 0.01% Tween-20, pH 7.5) using a Tecan Safire fluorescence polarisation plate reader (Tecan, US) at ex646/em678 nm. The concentration of dye-labelled peptide was held constant (20 nM) and the concentrations of the human or mouse cMet/Fc chimera (R&D Systems) or Semaphorin 6A (R&D Systems) were varied from 0-150 nM. Binding mixtures were equilibrated in the microplate for 10 min at 30° C. The observed change in anisotropy was fit to the equation: […]

T1 sequence (P16056 with tags, fused parts or gaps limits assumed): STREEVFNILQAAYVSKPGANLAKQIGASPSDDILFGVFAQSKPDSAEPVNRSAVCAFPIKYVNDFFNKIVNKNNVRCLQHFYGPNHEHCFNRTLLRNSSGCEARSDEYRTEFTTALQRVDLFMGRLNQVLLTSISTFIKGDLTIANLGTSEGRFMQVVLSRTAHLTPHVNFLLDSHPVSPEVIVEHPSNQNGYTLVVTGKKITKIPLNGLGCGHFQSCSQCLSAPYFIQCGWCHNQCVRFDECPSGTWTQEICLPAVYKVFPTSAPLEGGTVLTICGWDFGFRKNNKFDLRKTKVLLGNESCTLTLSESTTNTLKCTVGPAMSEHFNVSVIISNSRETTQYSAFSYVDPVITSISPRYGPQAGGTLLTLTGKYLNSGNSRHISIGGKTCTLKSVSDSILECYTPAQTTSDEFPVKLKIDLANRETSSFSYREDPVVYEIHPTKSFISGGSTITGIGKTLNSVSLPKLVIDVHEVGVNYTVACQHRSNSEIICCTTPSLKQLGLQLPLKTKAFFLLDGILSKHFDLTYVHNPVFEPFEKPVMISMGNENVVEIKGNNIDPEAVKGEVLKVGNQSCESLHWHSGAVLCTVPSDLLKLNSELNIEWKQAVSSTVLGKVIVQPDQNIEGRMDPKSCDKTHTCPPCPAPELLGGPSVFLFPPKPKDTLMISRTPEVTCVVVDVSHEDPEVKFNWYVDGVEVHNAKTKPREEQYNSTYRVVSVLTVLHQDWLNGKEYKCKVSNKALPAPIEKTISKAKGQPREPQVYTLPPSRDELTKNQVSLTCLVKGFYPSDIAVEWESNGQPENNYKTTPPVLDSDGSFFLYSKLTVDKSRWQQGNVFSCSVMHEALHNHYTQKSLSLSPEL
T1 sequence (P16056 25-306 limits assumed, change not shown): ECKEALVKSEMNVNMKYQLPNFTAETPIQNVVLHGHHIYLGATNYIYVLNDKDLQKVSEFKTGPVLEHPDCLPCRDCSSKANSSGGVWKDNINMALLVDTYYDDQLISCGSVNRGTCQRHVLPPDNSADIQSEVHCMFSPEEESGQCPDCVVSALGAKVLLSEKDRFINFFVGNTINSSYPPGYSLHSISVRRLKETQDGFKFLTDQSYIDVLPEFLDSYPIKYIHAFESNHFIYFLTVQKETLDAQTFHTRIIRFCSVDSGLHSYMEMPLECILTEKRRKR

“Ac-TGECTCPYWEFRPCECGSYSGAGGGK(ϵ-Cy5**)-NH2 (Ac-TGECTCPYWEFRPCECGSYSGAGGGK(Cy5∗∗)-NH2; cysteine pairing not given here; reading uncertain; also: printed as Ac-TGECTCPYWEFRPCECGSYSGAGGGK(ϵ-Cy5**)-NH2) [Compound 7, negative control]”: in the experiment on HCT-15 tumours, the “tumour to normal ratio” value was “did not discriminate between tumour and background”; the “visual identification of tumour against background” value is on record as “nothing was discernible against background”.

Take “Cys4-16, 6-14; Ac-Ala-Gly-Ser-Cys-Tyr-Cys-Ser-Gly-Pro-Pro-Arg-Phe-Glu-Cys-Trp-Cys-Tyr-Glu-Thr-Glu-Gly-Thr-Gly-Gly-Gly-Lys(Cy5)-NH2 (Ac-AGSCYCSGPPRFECWCYETEGTGGGK(Cy5)-NH2; disulfide 6-14, 4-16) [Compound 3]”: in the experiment with mouse cMet/Fc chimera, the “binding to mouse cMet” value was “no binding”.
